Where a name gives a salt, the structure may show the parent alone.
What was measured:
MRSA ON184 [1] = experiment: Checkerboard, FMCI; assay type: cell-based, Staphylococcus aureus; conditions: EDTA + chlorhexidine HCl
Method: An assay was made using a minimum inhibitory concentration (MIC) and minimum bactericidal concentration (MBC) and minimum fungicidal concentration (MFC) determination. The MIC was determined by the micro broth dilution method in 96-well plates. Serial two-fold dilutions of tetrasodium EDTA (from 2% to 0.015%), ethanol (from 50% to 0.1%) and chlorhexidine HCl (from 100 μg/mL to 0.025 μg/mL) were prepared in MH broth with a final volume of 90 μL per well. A 10 μL containing 1×10^5 bacterial cells or 2×10^3 fungal cells were added to each well. The inoculated plates were covered with a lid, sealed with Parafilm, and incubated for 24 h at 37° C. with slight rocking on a tilting platform shaker. After incubation, the optical density at 600 nm (OD 600) of the cultures in each well was measured using an xMark™ Microplate Absorbance Spectrophotometer (Bio-Rad). […] MBCs and MFCs were determined by transferring 100 μL from each well with no apparent growth onto appropriate agar plates, followed by incubation for 24 h at 37° C.
A fourth composition and solution included tetrasodium EDTA with ethanol or chlorhexidine HCl. […] The concentrations of antimicrobials used were based on previously determined MIC values. […] Microtiter plates were incubated at 37° C. for 24 h, and the results were analyzed. […]

MRSA ON184 [2] = experiment: Checkerboard FBEC index, 48-h biofilm; assay type: cell-based, Staphylococcus aureus; conditions: EDTA + chlorhexidine HCl
Method: In step (4), microtiter plates are incubated at 37° C. for 24 h. then (6), after incubation, the bacterial and fungal cells were dislodged from the pegs into the recovery medium described above.
Three 10-μL aliquots, for a total of 30 μL from each well of recovery medium, were spotted on MH agar plates and incubated for 24 h at 37° C. […] The FBEC determination is a modification of the FICI.

[H]/N=C(\N/C(=N/[H])NCCCCCCNC(=N)NC(=N)Nc1ccc(Cl)cc1)Nc1ccc(Cl)cc1 [Chlorhexidine HCl, chlorhexidine HCl, reference compound]
Microbicidal concentration in combination (MRSA ON184 [1]): 0.4 µg/mL

O=C([O-])CN(CCN(CC(=O)[O-])CC(=O)[O-])CC(=O)[O-].[Na+].[Na+].[Na+].[Na+] [EDTA, tetrasodium EDTA]
Biofilm eradication concentration in combination (FBEC) (MRSA ON184 [2]): 0.031 % w/v

Source: US20230263758A1, “COMPOSITIONS OF EDTA HAVING ACTIVITY AGAINST PLANKTONIC AND BIOFILM CELLS OF CLINICALLY RELEVANT PATHOGENS” (SterileCare Inc., priority 2022, published 2023)
